Results on one sequence are retold here after article PMC5344539, “Nematode neuropeptides as transgenic nematicides” (PLoS Pathogens, 2017).

Entries after “also recorded” stand apart in the source; their conditions may differ.

In assay [1] the test system is M. incognita J2s. Description: Chemosensory (chemotaxis) assay of uNLP pre-treated J2s towards tomato root exudate. The format is in vivo, Meloidogyne incognita. As to the method: (§1) Predicted uNLPs from both M. incognita and G. pallida were synthesised by EZBiolab and dissolved into pH adjusted ddH2O to make a 5 mM stock which was aliquoted and stored at -20°C. J2s of both M. incognita and G. pallida were incubated for 24 hours in 200 μl of each peptide in a 24 well plate (SPL Lifesciences, South Korea) at a defined concentration.
(§2) A 60 mm Petri dish was divided into two segments, a positive and a negative side, with a 0.5 cm 'dead zone' either side of the centre point. The petri dish was filled with 15 ml of 0.25% w/v agar which was allowed to solidify. 3 ml of 0.25% w/v agar slurry in spring water (pH 7, agitated with a magnetic stirrer for several hours to give a smooth consistency) was added to the petri dish and spread evenly over the surface. Root diffusate (attractant) and water only (control) 0.25% agar plugs were embedded in the agar slurry, either side of the assay arena. Root diffusate was collected from 10 tomato plants, aged 3–6 weeks in 1 litre pots, by pouring 500 ml of ddH20 through the soil three times. Diffusate from each plant was combined, filter sterilised and stored at 4°C for a maximum of 1 month. Root diffusate agar plugs were made by melting 1.25% agar in ddH20, cooling to 50°C before mixing with 4 parts of root diffusate. The agar was then allowed to solidify at room temperature. 100 uNLP pre-treated M. incognita or G. pallida J2s were added by pipette to the centre of the plate. J2s which moved out of the 'dead zone' after 3 hours were counted and their location (+/-) scored. The distribution of J2s were used to create a chemotaxis index for each plate, which formed one replicate, a total of 10 replicates where completed for each uNLP treatment.

For assay [2], the system named is G. pallida J2s. The description is as above. It counts as in vivo, Globodera pallida. The protocol:
as §1, §2

Assay [3] concerns G. pallida J2s. As to the kind of experiment: Plant protection assay, B. subtilis secreting uNLPs. It counts as in vivo, Globodera pallida. The note with it: Fig 4D; peptide secreted by transgenic B. subtilis culture in tomato invasion arena with 500 J2s; control = 100%; mean. The protocol: (§3) Tomato seeds were sterilised with 2.5% NaOCl for 15 minutes, washed 5 times in ddH20 and germinated on 0.5% Murashige and Skoog plates at 23°C. […] Invasion assays were performed by mixing 500 pre-treated M. incognita or G. pallida J2s with agar slurry and a single tomato seedling (2 days post germination) in a 6 well plate. Assays were left at 23°C for 24 hours in the case of M. incognita and at 18°C for 24 hours in the case of G. pallida under a 16 hour light and 8 hour darkness cycle. Seedlings were stained using acid fuschin [69] and the number of nematodes within the roots counted. At least five seedlings were used for M. incognita infections assays, with at least 15 seedlings used for G. pallida infections assays (due to increased variation).
(§4) B. subtilis were grown overnight in LB media containing ampicillin (100 μg/ml) at 37°C with shaking, and harvested in the log phase of growth determined by measuring OD600nm. Five ml of culture at 0.5 OD was spun down and the pellet mixed with 3 ml of agar slurry and 500 J2s from either G. pallida or M. incognita. C. reinhardtii clones were grown at 23°C with shaking, cultures in the log phase were measured at OD750 and 5 ml of culture at 0.5 OD was pelleted by centrifugation. C. reinhardtii pellets were mixed with 3 ml of agar slurry and 500 J2s from either G. pallida or M. incognita. Plant invasion assays were performed as described above. […]

Assay [4] has as its system M. incognita J2s. The assay is described as above. The format is in vivo, Meloidogyne incognita. The settings on record: Fig 4B; peptide secreted by transgenic B. subtilis culture in tomato invasion arena with 500 J2s; control = 100%; mean. As to the method: as §3, §4
In assay [5] the test system is M. incognita J2s. As to the kind of experiment: Serotonin-induced stylet thrusting assay. It counts as in vivo, Meloidogyne incognita. The note with it: Fig 1C; J2s incubated in 100 μM uNLP for 24 h; stylet thrusts in 5 mM serotonin, counted 1 min; normalised to control = 100%; mean, at least 30 J2s. The protocol: as §1
Stylet thrusting assays where performed by incubating 100 M. incognita or G. pallida J2s for 15 minute in 5 mM or 2 mM serotonin (Sigma Aldrich, USA), respectively. J2s were placed on a glass slide and stylet thrusts were counted for randomly selected J2s, for 1 minute each. Counts for a given cohort of J2s were taken in a maximum interval of 15 minutes. Longer counting intervals, making for longer serotonin incubations, yielded inconsistent results. At least 30 J2s were counted for each neuropeptide treatment.

The subject of assay [6] is G. pallida J2s. As to the kind of experiment: Plant protection assay, C. reinhardtii secreting uNLPs. It counts as in vivo, Globodera pallida. The note with it: Fig 4C; peptide secreted by transgenic C. reinhardtii culture in tomato invasion arena with 500 J2s; control = 100%; mean. The protocol: as §3, §4
Setting [7] is: 100 μM uNLP, 24 h, relative to controls.

With “SFDSFTGPGFTGLD [Mi-NLP-15b, predicted unamidated NLP perfectly conserved between M. incognita and G. pallida; synthesised, also secreted from transgenic microbes]”, the “effect on chemosensation (in words)” value in the assay on M. incognita J2s [1] (setting [7]) was “inhibit chemosensation; also recorded: inhibited”; with G. pallida J2s [2] (setting [7]), “inhibits G. pallida chemotaxis”. The CI score is on record as -0.3408 with M. incognita J2s [1] (Fig 1A, J2s incubated in 100 μM uNLP for 24 h, tomato cv. Moneymaker root exudate vs water agar plugs, counted after 3 h, mean of 10 replicates of 100 J2s, control 0.4426); 0.03117 in the assay on M. incognita J2s [1] (Fig 3A, 100 pM peptide, 24 h, control 0.4133, mean); -0.07105 in the assay with M. incognita J2s [1] (Fig 3A, 1 nM peptide, 24 h, control 0.4133, mean); -0.1741 in the assay with M. incognita J2s [1] (Fig 3A, 10 nM peptide, 24 h, control 0.4133, mean); -0.1195 in the assay with M. incognita J2s [1] (Fig 3A, 100 nM peptide, 24 h, control 0.4133, mean); -0.1344 in the assay on M. incognita J2s [1] (Fig 3A, 1 µM peptide, 24 h, control 0.4133, mean). Besides, the CI score with M. incognita J2s [1] (Fig 3A, 10 µM peptide, 24 h, control 0.4133, mean) is listed as -0.03579; in the assay with M. incognita J2s [1] (Fig 3A, 100 µM peptide, 24 h, control 0.4133, mean), -0.3782; with M. incognita J2s [1] (Fig 3A, concentration printed as 22:00:00, 24 h, control 0.4133, mean), -0.1553; with G. pallida J2s [2] (Fig 2A, J2s incubated in 100 μM uNLP for 24 h, tomato cv. Moneymaker root exudate vs water agar plugs, counted after 3 h, mean of 10 replicates of 100 J2s, control 0.4154) it was -0.04762. Further, in the assay on M. incognita J2s [1] (serial dilution, 24 h exposure (Fig 3)), the “lowest concentration inhibiting chemosensation” value is recorded as ≤ 10 pM. For the same sequence, the results for the “% Invasion” value in the assay with G. pallida J2s [3], in the assay on M. incognita J2s [4] and with G. pallida J2s [6] were 51.98%, 26.63% and 30.95%, respectively. In addition, the “% Thrusting” value in the assay with M. incognita J2s [5] worked out at 129.90%.
